In US5672603A, “Apoptosis regulating composition” (Otsuka Pharmaceutical Co., Ltd., priority 1991, dated 1997):
“Also recorded” adds a separate entry of the source.

How the values were obtained:
[1] = test system: PC12 cells; assay: Effect on PC12 cells (morphology, phase contrast microscope)
Method: PC12 cells subcultured in Dulbecco's modified Eagle's medium (D-MEM) supplemented with 5% heat-inactivated (56° C., 30 minutes) horse serum and 10% fetal calf serum (FCS) were transferred onto collagen-coatedplastic Petri dishes (35 mm in diameter) at a concentration of 6×10^4 cells/3 ml medium.

[2] = test system: acute hepatic failure model; assay: Effect on hepatic failure (heat-killed bacteria / LPS), survival; format: in vivo, Balb/c mice; conditions: for Survival rate: 7 days after LPS, untreated 0%, solvent 10%
Method: Heat-killed cells of P. aches (a gift from Dr. Mizoguchi, the Third Department of Internal Medicine, Osaka City University School of Medicine) were administered intravenously in a dose of 3 mg/body to male Balb/c mice (7 weeks old, purchased from Japan SLC). Seven days later; a solvent group (0.5% CMC, Dai-ichi Kogyo Seiyaku Co., Ltd) and an untreated group, as well as the test groups given 10 or 100 mg/kg of Compound 1 orally, were provided. One hour after administration of Compound 1, 5 μg/body of lipopolysaccharide (LPS, Sigma Co., Ltd.) was administered intravenously to induce acute hepatic failure.

[3] = test system: human adult T cell leukemic cells (5S); assay: ATL-infected cell growth inhibition test: ATLV-infected cells; format: cell-based; conditions: for Number of ATLV-infected cells: 4 days, control 6.5
Method: Human adult T cell leukemia cells (5S) were used to prepare a suspension of 1×10^5 cells/ml in RPMI-1640 medium (Gibco) supplemented 10% fetal calf serum (FCS, Gibco) for use as ATL virus-infected cells.
Compound 1 was dissolved in hydrochloric acid, diluted with the same medium as above, neutralized with 2N NaOH and adjusted to concentrations of 1 μg/ml, 10 μg/ml and 30 μg/ml.
The cells prepared in (a) and (b) above were respectively placed in wells of a 24-well culture plate (Nunc), followed by addition of the test compound prepared in (c) (final concentration: 1 μg/ml, 10 μg/ml or 30 μg/ml), and cultured at 37° C. in a 5% carbon dioxide incubator for 4 days. As a control, the medium without addition of the test compound was used. After completion of incubation, the cell suspension in each well was taken for determination of viable cells.

[4] = test system: HL-60 cells; assay: Induction of differentiation of HL-60 cells (CD11b expression, flow cytometry); format: cell-based, human; set-up: reference not given here; conditions: 30 μg/ml; 3 days; CD11b fluorescence
Method: HL-60 cells were cultivated in RPMI-1640 medium supplemented with 10% of FCS at 37° C. under 5% CO2, and the cell concentration was adjusted to 5×10^4 cells/ml.
Then, the above-mentioned medium containing 30 μg/ml of each test compound was added to each well of 6-well microplates (Costar), followed by 3 days of incubation at 37° C. under 5% CO2. In a control group, the above medium alone was added and incubation was performed in the same manner. Thereafter, each cultured cell suspension was sampled into an Eppendorf tube and, after staining with 0.2% trypan blue-containing phosphate buffer, viable cells were counted using a hematocytometer.
The above cells were adjusted to 1×10^7 cells/ml. To 100 μl of the cell suspension was added 5 μl of a solution of fluorescein isothiocyanate (FITC)-labeled anti-human CD11b antibody (Mol; Coulter) and the reaction was allowed to proceed on ice in the dark for 30 minutes. Then, cells were washed twice with PBS (phosphate-buffered saline; Nissui Pharmaceutical) containing 0.1% of BSA (bovine serum albumin; Sigma), finally suspended in 500 μl of the BSA-containing PBS and measured for fluorescence intensity by flow cytometry using Profile II (Coulter).

[5] = test system: CMK cells; assay: Apoptosis-regulating effect: DNA fragmentation in CMK cells (agarose gel electrophoresis); format: cell-based, human; conditions: 30 μg/ml; 2 or 4 days
Method: CMK cells were used to prepare a suspension of 1×10^5 cells/ml in RPMI-1640 medium supplemented with fetal calf serum and Compound 1 was added at a concentration of 30 μg/ml. The mixture was incubated in a culture flask at 37° C. for 2 or 4 days. As a control, the medium to which the solvent alone was added was similarly incubated.
Cells were harvested by centrifugation at 4° C. for 10 minutes at 200×G. The pellet was dissolved in a hypotonic buffer (10 mM Tris-HCl, 1 mM EDTA and 0.2% Triton 100, pH 7.5) and the solution was centrifuged at 4° C. for 10 minutes at 13000×G. The supernatant was collected and allowed to stand in 50% isopropyl alcohol -0.5M NaCl at -20° C. overnight. The resultant precipitate was centrifuged at 4° C. for 10 minutes at 13000×G, the supernatant was discarded, and the sediment was dried. The dry sediment was resuspended in 10 mMTris-HCl-1 mM EDTA (pH 7.4). To the supernatant was added RNase at a final concentration of 0.1 mg/ml and the mixture was incubated at 37° C. for 1 hour.
To a sample corresponding to the cell count of 1×10^6 was added 1/5 volume of a loading buffer containing 15 mM EDTA, 2% SDS, 50% glycerol and 0.05% bromphenol blue, and the mixture was incubated at 65° C. for 10 minutes.
The culture sample thus obtained was subjected to electrophoresis in 1.5% agarose gel at 100 V for 100 minutes. The DNA was stained with ethidium bromide. […]

`COc1ccc(C(=O)N2CCN(c3ccc4c(c3)CCC(=O)N4)CC2)cc1OC` [Compound 1, 6-[4-(3,4-Dimethoxybenzoyl)-1-piperazinyl]-3,4-dihydrocarbostyril] was tested, and the “Cells with morphological changes induced” value ([1]; 30 μg/ml, day 3) was 30-50 % of the total cell population, the “Formation of nerve fiber-like processes” value ([1]; 30 μg/ml, most prominent with FCS 0.3%, day 3) was “formation of nerve fiber-like processes; also recorded: formation of nerve-like processes is observed” and the “Elongation of the process, combination of Compound 1 and NGF” value ([1]; with NGF, 0.3% FCS, vs Compound 1 or NGF alone) was “promotes elongation of the process as compared with Compound 1 or NGF alone”. For the same molecule, the Survival rate ([2]; 10 mg/kg oral) was 30%, the Survival rate ([2]; 100 mg/kg oral) was 70% and the “Life-prolonging effect in acute hepatitis model (in words)” value ([2]; 10 and 100 mg/kg oral) was “dose-dependent and excellent life-prolonging effect”. The “Number of ATLV-infected cells” value ([3]; 1 μg/ml) was 0.6 ×10^5, the “Number of ATLV-infected cells” value ([3]; 10 μg/ml) was 0.2 ×10^5 and the “Number of ATLV-infected cells” value ([3]; 30 μg/ml) was 3.3 ×10^5. The “Growth inhibition of ATLV-infected cells (in words)” value ([3]; at least 1 μg/ml) was “potent inhibitory effect on the growth of ATLV-infected cells”, the “Induction of differentiation promoting effect” value [4] was 322 and the “Apoptosis (DNA fragmentation)” value [5] was “promotes apoptosis of CMK cells”.
